Test results from EPA's ToxValDB 9.5 (doi:10.2903/j.efsa.2017.4988).
In brackets after ≈: the same amount, converted by molar mass.

Assays:
Rattus norvegicus = details: for LD50: acute, mortality
Cyprinodon variegatus = details: acute; duration: 96 hours; mortality
Hypoaspis aculeifer = details: chronic/long-term; duration: 14 days; reproduction
Daphnia magna = details: chronic/long-term; duration: 21 days
Anomia sp. = details: acute; duration: 96 hours; mortality
Oncorhynchus mykiss = details: chronic/long-term; duration: 89 days; mortality
Apis mellifera = details: acute, mortality
Anas platyrhynchos = details: acute; oral; unspecified; mortality
Gammaridae = details: chronic/long-term; duration: 28 days
Canidae = details: oral, Dog Other
Aphidius rhopalosiphi = experiment: LR50; higher = less toxic; details: not reported; mortality

Row | Compound | LD50 (Rattus norvegicus) [mg/kg] | LC50 (Cyprinodon variegatus) [ng/mL] | NOEC (Hypoaspis aculeifer) [mg/kg] | NOEC (Daphnia magna) [mg/L] | LC50 (Anomia sp.) [ng/mL] | NOEC (Oncorhynchus mykiss) [mg/L] | LD50 (Apis mellifera; dermal) [µg/piece] | LD50 (Apis mellifera; oral, unspecified) [µg/piece] | LC50 (Tagia sp.; acute, duration: 14 days, mortality) [mg/kg] | NOEC (Tagia sp.; chronic/long-term, duration: 56 days, reproduction) [mg/kg] | LD50 (Anas platyrhynchos) [mg/kg] | NOEC (Gammaridae) [mg/kg] | NOAEL (Canidae; chronic, duration: 1 years) [mg/kg-day] | NOAEL (Canidae; subchronic, duration: 90 days) [mg/kg-day] | LC50 (Colinus virginianus; acute, oral, diet, mortality) [mg/kg-day] | NOEC (Colinus virginianus; chronic) [mg/kg-day] | LD50 (Rattus norvegicus; oral) [mg/kg] | NOAEL (Rattus norvegicus; chronic, duration: 2 years) [mg/kg-day] | NOAEL (Rattus norvegicus; reproduction developmental, organ weight) [mg/kg-day] | LR50 (Aphidius rhopalosiphi) [g/ha]
1 | CCOc1cc(C(C)(C)C)ccc1C(N)COC(=O)c1c(F)cccc1F (stereo not given) | > 5000 |  |  |  |  |  |  |  |  |  |  |  |  |  |  |  |  |  |  | 
2 | CCOc1cc(C(C)(C)C)ccc1C1COC(c2c(F)cccc2F)=N1 (stereo not given) [Etoxazole] |  | > 160 | 0.2 | 0.00013 | 4.3 (≈ 0.012 µM) | 0.015 | > 200 | > 200 | > 1000 | 5 | > 2000 | 0.86 | 5 | 5 | 1270 | 28.6 | > 5000 | 4 | 24.5 | > 55
